Test results published in patent US6855730B2, “3-methylidenyl-2-indolinone modulators of protein kinase” (Sugen, Inc., priority 1998, dated 2005).

Test system: endogenous FGF receptors in 3Tc7/EGFr cells
Assay: FGF-induced BrdU incorporation assay
Type: cell-based
Details: read-out: FGF-Induced BrdU Incorp. IC50
Description: The cellular/catalytic assays described herein are performed in an ELISA format. The general procedure is as follows: a compound is introduced to cells expressing the test kinase, either naturally or recombinantly, for a selected period of time after which, if the test kinase is a receptor, a ligand known to activate the receptor is added. The cells are lysed and the lysate is transferred to the wells of an ELISA plate previously coated with a specific antibody recognizing the substrate of the enzymatic phosphorylation reaction. Non-substrate components of the cell lysate are washed away and the amount of phosphorylation on the substrate is detected with an antibody specifically recognizing phosphotyrosine compared with control cells that were not contacted with a test compound. The cellular/biologic assays described herein measure the amount of DNA made in response to activation of a test kinase, which is a general measure of a proliferative response. The general procedure for this assay is as follows: a compound is introduced to cells expressing the test kinase, either naturally or recombinantly, for a selected period of time after which, if the test kinase is a receptor, a ligand known to activate the receptor is added. After incubation at least overnight, a DNA labeling reagent such as Bromodeoxyuridine (BrdU) or 3H-thymidine is added. The amount of labeled DNA is detected with either an anti-BrdU antibody or by measuring radioactivity and is compared to control cells not contacted with a test compound.
FGF-Induced BrdU incorporation Assay
This assay measures FGF-induced DNA synthesis in 3Tc7/EGFr cells that express endogenous FGF receptors.
Materials and Reagents: • 1. FGF: human FGF2/bFGF (Gibco BRL, No. 13256-029). • 2. BrdU Labeling reagent, (10 mM PBS (pH 7.4), Boehringer Mannheim Cat No. 1 647 229). • 3. Fixdenat fixation solution (Boehringer Mannheim Cat No. 1 647 229). • 4. Anti-BrdU-POD (mouse monoclonal antibody conjugated with peroxidase, Boehringer Mannheim Cat. No. 1 647 229). • 5. TMB (tetramethylbenzidine, Boehringer Mannheim Cat. No. 1 647 229). • 6. PBS washing solution, pH 7.4 (Sugen, Inc.). • 7. Albumin, bovine (BSA), fraction V powder (Sigma Chemical Co., Cat. No. A-8551)
Procedure • 1. 3T3 engineered cell line: 3T3c7/EGFr. • 2. Cells are seeded at 8,000 cells/well in DMEM, 10% CS and 2 mM Gln in a 96-well plate. Incubate 24 hours at 37° C. in 5% CO2. • 3. After 24 hours, wash cells with PBS then serum starve in serum free medium (0% DMEM, 0.1% BSA) for 24 hours. • 4. Add ligand (FGF2 (1.5 nM in DMEM with 0.1% BSA) and test compound simultaneously. Negative control wells receive serum free DMEM with 0.1% BSA only, positive control wells receive FGF2 ligand but no test compound. Test compounds are prepared in serum-free DMEM with ligand in a 96-well plate and serially diluted to make seven (7) test concentrations. • 5. After 20 hours, add diluted BrdU labeling reagent (1:100 BrdU:DMEM, 0.1% BSA, final concentration is 10 μM) to the cells and incubate for 1.5 hours. • 6. Decant medium. Remove traces of material with paper towel. Add FixDenat (50 μl/well) and incubate at room temperature for 45 minutes on a plate shaker. • 7. Remove Fixdenat solution. Add blocking solution (5% dehydrated milk in PBS (200 μl/well)) and incubate for 30 minutes at room temperature on a plate shaker. • 8. Decant blocking solution, wash wells once with PBS. Add anti-BrdU-POD solution (1:100 dilution in PBS, 0.1% BSA), incubate for 90 minutes at room temperature on a plate shaker. • 9. Decant antibody conjugate, rinse wells 5 times with PBS. Dry plate by inverting on paper towel and tapping. • 10. Add TMB solution (100 μl/well), incubate 20 minutes at room temperature on a plate shaker until color development is sufficient for photometric detection. • 11. Measure absorbance at 410 nm on a Dynatech ELISA plate reader using “Dual wavelength” mode with a filter at 490 nM. Biochemical EGFR Assay

Row | Compound | IC50 [µM]
1 | CN(C)C(=O)CCc1c(/C=C2\C(=O)Nc3ccccc32)[nH]c2c1CCCC2 [Example 197, N,N-Dimethyl-3-[2-(2-oxo-1,2-dihydroindol-3-ylidenemethyl)-4,5,6,7-tetrahydro-1H-indol-3-yl]-propionamide] | > 50
2 | CNC(=O)CCc1c(/C=C2\C(=O)Nc3ccccc32)[nH]c2c1CCCC2 [Example 201, N-Methyl-3-[2-(2-oxo-1,2-dihydroindol-3-ylidenemethyl)-4,5,6,7-tetrahydro-1H-indol-3-yl]-propionamide] | > 50
3 | O=C(CCc1c(/C=C2\C(=O)Nc3ccccc32)[nH]c2c1CCCC2)NCCN1CCOCC1 [Example 202, N-(2-Morpholin-4-ylethyl)-3-[2-(2-oxo-1,2-dihydroindol-3-ylidenemethyl)-4,5,6,7-tetrahydro-1H-indol-3-yl]-propionamide] | > 50
4 | Cc1c[nH]c(/C=C2\C(=O)Nc3ccccc32)c1CCC(=O)O [Example 215, 3-[4-Methyl-2-(2-oxo-1,2-dihydroindol-3-ylidenemethyl)-1H-pyrrol-3-yl]-propionic acid] | 25
5 | Cc1c[nH]c(/C=C2\C(=O)Nc3cccc(C)c32)c1CCC(=O)O [Example 218, 3-[2-(4-Methyl-2-oxo-1,2-dihydroindol-3-ylidenemethyl)-4-methyl-1H-pyrrol-3-yl]-propionic acid] | > 50
6 | Cc1c[nH]c(/C=C2\C(=O)Nc3ccc(Br)cc32)c1CCC(=O)O [Example 220, 3-[2-(5-Bromo-2-oxo-1,2-dihydroindol-3-ylidenemethyl)-4-methyl-1H-pyrrol-3-yl]-propionic acid] | > 50

Next, values leading:

Row | IC50 [µM] | Compound
7 | 23.6 | O=C(O)CCc1c(/C=C2\C(=O)Nc3ccc(Cl)cc32)[nH]c2c1CCCC2 [Example 191, 3-[2-(5-Chloro-2-oxo-1,2-dihydroindol-3-ylidenemethyl)-4,5,6,7-tetrahydro-1H-indol-3-yl]-propionic acid]
8 | > 50 | CN(C)CCCc1c(/C=C2\C(=O)Nc3ccccc32)[nH]c2c1CCCC2 [Example 198, 3-[3-(3-Dimethylaminopropyl)-4,5,6,7-tetrahydro-1H-indol-2-ylmethylene]-1,3-dihydroindol-2-one]
9 | > 50 | NC(=O)CCc1c(/C=C2\C(=O)Nc3ccccc32)[nH]c2c1CCCC2 [Example 199, 3-[2-(2-Oxo-1,2-dihydroindol-3-ylidenemethyl)-4,5,6,7-tetrahydro-1H-indol-3-yl]-propionamide]
10 | > 50 | O=C1Nc2ccccc2/C1=C/c1[nH]c2c(c1CCC(=O)N1CCOCC1)CCCC2 [Example 200, 3-[3-(3-Morpholin-4-yl-3-oxopropyl)-4,5,6,7-tetrahydro-1H-indol-2-ylmethylene]-1,3-dihydroindol-2-one]
11 | > 50 | COc1ccc2c(c1)NC(=O)/C2=C\c1[nH]cc(C)c1CCC(=O)O [Example 217, 3-[2-(6-Methoxy-2-oxo-1,2-dihydroindol-3-ylidenemethyl)-4-methyl-1H-pyrrol-3-yl]-propionic acid]
